Assays:
[1] = molecular target: T1, unphosphorylated T315I Abl kinase domain (Mus musculus, UniProt P00520, T315I); assay: c-Abl T315I 0P bioassay (pyruvate kinase/lactate dehydrogenase coupled enzyme assay); type: biochemical; settings: zero phosphorylation state (0P), 10 μM ATP, read-out: AbI T315I 0P IC50
T1 construct: purified and unphosphorylated T315I Abl kinase domain; made in house; host or cells: E. coli BL21(DE3) (Codon+RIL or pSA0145 strain)
T1 sequence (P00520 242-493 T315I limits assumed): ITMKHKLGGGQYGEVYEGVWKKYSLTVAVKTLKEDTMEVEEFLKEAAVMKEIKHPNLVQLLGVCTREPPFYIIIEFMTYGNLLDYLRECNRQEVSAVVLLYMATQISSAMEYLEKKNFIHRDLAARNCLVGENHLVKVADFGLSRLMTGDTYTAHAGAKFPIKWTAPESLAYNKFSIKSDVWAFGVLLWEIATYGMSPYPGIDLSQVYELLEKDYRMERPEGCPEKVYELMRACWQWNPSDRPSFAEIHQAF

[2] = molecular target: Ba/F3 cells, ABL1 WT (Homo sapiens, UniProt P00519); assay: 96-well XTT cell survival assay, Ba/F3 ABL1 WT; type: cell-based; settings: 72 hours, read-out: ABL1 WT XTT [Ba/F3] IC50
Outline: (§1)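 Ba/F3 cells carrying wild-type or T315I ABL1 were seeded at 5000-8000 per well with graded compound concentrations in duplicate and grown 72 hours at 37° C. Survival was read by XTT/PMS reduction after a further 2-6 h, as absorbance at 405 nm with 650 nm background correction.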

[3] = molecular target: Ba/F3 cells, ABL1 T315I (Homo sapiens, UniProt P00519, T315I, cells depend on it); assay: 96-well XTT cell survival assay, Ba/F3 ABL1 T315I; type: cell-based; settings: 72 hours, read-out: ABL1 T315I XTT [Ba/F3] IC50
Outline: as §1

SMILES	IC50 [1]	GI50 [2]	GI50 [3]
COc1ccccc1-c1n[nH]c2ncc(-c3cccc(C(O)C(=O)NC4CCN(C)CC4)c3)cc12 (stereo not drawn)	< 50 nM	> 1000 nM	> 1000 nM
COc1ccccc1-c1n[nH]c2ncc(-c3cccc(C(O)C(=O)N(C)C)c3)cc12 (stereo not drawn)	< 50 nM	< 1000 nM	< 1000 nM
COc1ccccc1-c1n[nH]c2ncc(-c3cccc(C(O)C(=O)NCCN(C)C)c3)cc12 (stereo not drawn)	< 50 nM	< 1000 nM	> 1000 nM
COc1ccccc1-c1n[nH]c2ncc(-c3cccc(C(O)C(=O)N4CCC(O)C4)c3)cc12 (stereo not drawn)	< 50 nM	> 1000 nM	> 1000 nM
COc1ccccc1-c1n[nH]c2ncc(-c3cccc(C(O)C(=O)N4CCC(O)CC4)c3)cc12 (stereo not drawn)	< 50 nM	> 1000 nM	> 1000 nM
COc1ccccc1-c1n[nH]c2ncc(-c3cccc(C(O)C(=O)N4CCC(N(C)C)C4)c3)cc12 (stereo not drawn)	< 50 nM	< 1000 nM	< 1000 nM
COc1ccccc1-c1n[nH]c2ncc(-c3cccc(C(O)C(=O)N4CCC[C@@H]4CO)c3)cc12 (stereo partly drawn)	< 50 nM	< 1000 nM	< 1000 nM
COC[C@H]1CCCN1C(=O)C(O)c1cccc(-c2cnc3[nH]nc(-c4ccccc4OC)c3c2)c1 (stereo partly drawn)	< 50 nM	< 1000 nM	> 1000 nM
COc1ccccc1-c1n[nH]c2ncc(-c3cccc(C(C)O)c3)cc12 (stereo not drawn)	< 50 nM	< 1000 nM	< 1000 nM
COc1ccccc1-c1n[nH]c2ncc(-c3cccc([C@@H](C)O)c3)cc12	< 50 nM	< 1000 nM	< 1000 nM
COc1ccccc1-c1n[nH]c2ncc(-c3cccc(C(C)(O)C(=O)N(C)C)c3)cc12 (stereo not drawn)	< 50 nM	> 1000 nM	> 1000 nM
COc1ccccc1-c1n[nH]c2ncc(-c3cccc(C(C)(O)C(=O)N(C)CCN(C)C)c3)cc12 (stereo not drawn)	< 50 nM	> 1000 nM	> 1000 nM
COc1ccccc1-c1n[nH]c2ncc(-c3cccc(C(C)(O)C(=O)N4CC(O)C4)c3)cc12 (stereo not drawn)	< 50 nM	> 1000 nM	> 1000 nM
COc1ccccc1-c1n[nH]c2ncc(-c3cccc(C(OC)C(=O)N(C)C)c3)cc12 (stereo not drawn)	< 50 nM	< 1000 nM	< 1000 nM
COc1ccccc1-c1n[nH]c2ncc(-c3cccc(C(OC)C(=O)N(C)CCN(C)C)c3)cc12 (stereo not drawn)	< 50 nM	< 1000 nM	< 1000 nM
COc1ccccc1-c1n[nH]c2ncc(-c3cccc(C(N)C(=O)N(C)C)c3)cc12 (stereo not drawn)	< 50 nM	< 1000 nM	< 1000 nM
COc1ccccc1-c1n[nH]c2ncc(-c3cccc(C(N)C(=O)N(C)CCN(C)C)c3)cc12 (stereo not drawn)	< 50 nM	> 1000 nM	> 1000 nM
COc1ccccc1-c1n[nH]c2ncc(-c3cccc(C(N)C(=O)N4CC(O)C4)c3)cc12 (stereo not drawn)	< 50 nM	> 1000 nM	> 1000 nM
COc1ccccc1-c1n[nH]c2ncc(-c3cccc(C(=O)C(=O)N(C)C)c3)cc12	< 50 nM	> 1000 nM	> 1000 nM
COc1ccccc1-c1n[nH]c2ncc(-c3cccc(C(=O)C(=O)N(C)CCN(C)C)c3)cc12	< 50 nM	< 1000 nM	< 1000 nM
COc1ccccc1-c1n[nH]c2ncc(-c3cccc(C(=O)C(=O)N4CC(O)C4)c3)cc12	< 50 nM	> 1000 nM	> 1000 nM
COc1ccccc1-c1n[nH]c2ncc(-c3cccc(C(O)c4ncco4)c3)cc12 (stereo not drawn)	< 50 nM	< 1000 nM	> 1000 nM

Reference: patent US8242280B2, “Fused ring heterocycle kinase modulators” (SGX Pharmaceuticals, Inc., priority 2007, dated 2012)
